# Measurements from patent publication US20240150377A1, “MODULATORS OF CYSTIC FIBROSIS TRANSMEMBRANE CONDUCTANCE REGULATOR” (VERTEX PHARMACEUTICALS INCORPORATED, priority 2020, published 2024).
# Where two headings read alike, the source gives them in different places.
# Target: CFTR (Homo sapiens, UniProt P13569)
# Experiment: Membrane potential dye, Enteroid Assay B
# Type: cell-based
# Conditions: for EC50: read-out: Ent. B EC50; for Ent. B Max Activity: chloride transport as % of triple combination control (Enteroid Assay B)
# Method: Base medium (ADF+++) consisted of Advanced DMEM/Ham's F12, 2 mM Glutamax, 10 mM HEPES, […] penicillin/streptomycin.
# Intestinal enteroid maintenance medium (IEMM) consisted of ADF+++, 1× B27 supplement, 1× N2 supplement, 1.25 mM N-acetyl cysteine, 10 mM Nicotinamide, 50 ng/mL hEGF, 10 nM Gastrin, 1 μg/mL hR-spondin-1, 100 ng/mL hNoggin, TGF-b type 1 inhibitor A-83-01, 100 μg/mL Primocin, 10 μM P38 MAPK inhibitor SB202190.
# Bath 1 Buffer consisted of 1 mM MgCl2, 160 mM NaCl, 4.5 mM KCl, 10 mM HEPES, 10 mM Glucose, 2 mM CaCl2).
# Chloride Free Buffer consisted of 1 mM Magnesium Gluconate, 2 mM Calcium Gluconate, 4.5 mM Potassium Gluconate, 160 mM Sodium Gluconate, 10 mM HEPES, 10 mM Glucose.
# BathI Dye Solution consisted of Bath 1 Buffer, 0.04% Pluronic F127, 20 μM Methyl Oxonol, 30 μM CaCCinh-A01, 30 μM Chicago Sky Blue.
# Chloride Free Dye Solution consisted of Chloride Free Buffer, 0.04% Pluronic F127, 20 μM Methyl Oxonol, 30 μM CaCCinh-A01, 30 μM Chicago Sky Blue.
# Chloride Free Dye Stimulation Solution consisted of Chloride Free Dye Solution, 10 μM forskolin, 100 μM IBMX, and 300 nM Compound III.
# Human intestinal epithelial enteroid cells were obtained from the Hubrecht Institute for Developmental Biology and Stem Cell Research, Utrecht, The Netherlands and expanded in T-Flasks as previously described (Dekkers J F, Wiegerinck C L, de Jonge H R, Bronsveld I, Janssens H M, de Winter-de Groot K M, Brandsma A M, de Jong N W M, Bijvelds M J C, Scholte B J, Nieuwenhuis E E S, van den Brink S, Clevers H, van der Ent C K, Middendorp S and M Beekman J M. A functional CFTR assay using primary cystic fibrosis intestinal organoids. Nat Med. 2013 July;19(7):939-45.).
# 3. Enteroid Cell Harvesting and Seeding
# Cells were recovered in cell recovery solution, collected by centrifugation at 650 rpm for 5 min at 4° C., resuspended in TrypLE and incubated for 5 min at 37° C. Cells were then collected by centrifugation at 650 rpm for 5 min at 4° C. and resuspended in IEMM containing 10 μM ROCK inhibitor (RI). The cell suspension was passed through a 40 μm cell strainer and resuspended at 1×10^6 cells/mL in IEMM containing 10 μM RI. Cells were seeded at 5000 cells/well into multi-well plates and incubated for overnight at 37° C., 95% humidity and 5% CO2 prior to assay.
# 5. Membrane Potential Dye, Enteroid Assay B
# Enteroid cells were incubated with test compound in IEMM for 18-24 hours at 37° C., 95% humidity and 5% CO2. […] Briefly, cells were washed 5 times in Bath 1 Buffer. Bath 1 Dye Solution was added and the cells were incubated for 25 min at room temperature. Following dye incubation, cells were washed 3 times in Chloride Free Dye Solution. Chloride transport was initiated by addition of Chloride Free Dye Stimulation Solution and the fluorescence signal was read for 15 min. […] Chloride transport was then expressed as a percentage of the chloride transport following treatment with 1 μM (14S)-8-[3-(2-{Dispiro[2.0.2.1]heptan-7-yl}ethoxy)-1H-pyrazol-1-yl]-12,12-dimethyl-2λ^6-thia-3,9,11,18,23-pentaazatetracyclo[17.3.1.111,14.05,10]tetracosa-1(22),5,7,9,19(23),20-hexaene-2,2,4-trione, 3 μM (R)-1-(2,2-difluorobenzo[d][1,3]dioxol-5-yl)-N-(1-(2,3-dihydroxypropyl)-6-fluoro-2-(1-hydroxy-2-methylpropan-2-yl)-1H-indol-5-yl)cyclopropanecarboxamide and 300 nM acute N-[2,4-bis(1,1-dimethylethyl)-5-hydroxyphenyl]-1,4-dihydro-4-oxoquinoline-3-carboxamide triple combination control (% Activity).
# [1] = Table 8, human enteroid cells, 18-24 hours, acute 10 μM forskolin and 300 nM ivacaftor
# Sequence of CFTR (P13569 with tags, fused parts or gaps DEL508-508): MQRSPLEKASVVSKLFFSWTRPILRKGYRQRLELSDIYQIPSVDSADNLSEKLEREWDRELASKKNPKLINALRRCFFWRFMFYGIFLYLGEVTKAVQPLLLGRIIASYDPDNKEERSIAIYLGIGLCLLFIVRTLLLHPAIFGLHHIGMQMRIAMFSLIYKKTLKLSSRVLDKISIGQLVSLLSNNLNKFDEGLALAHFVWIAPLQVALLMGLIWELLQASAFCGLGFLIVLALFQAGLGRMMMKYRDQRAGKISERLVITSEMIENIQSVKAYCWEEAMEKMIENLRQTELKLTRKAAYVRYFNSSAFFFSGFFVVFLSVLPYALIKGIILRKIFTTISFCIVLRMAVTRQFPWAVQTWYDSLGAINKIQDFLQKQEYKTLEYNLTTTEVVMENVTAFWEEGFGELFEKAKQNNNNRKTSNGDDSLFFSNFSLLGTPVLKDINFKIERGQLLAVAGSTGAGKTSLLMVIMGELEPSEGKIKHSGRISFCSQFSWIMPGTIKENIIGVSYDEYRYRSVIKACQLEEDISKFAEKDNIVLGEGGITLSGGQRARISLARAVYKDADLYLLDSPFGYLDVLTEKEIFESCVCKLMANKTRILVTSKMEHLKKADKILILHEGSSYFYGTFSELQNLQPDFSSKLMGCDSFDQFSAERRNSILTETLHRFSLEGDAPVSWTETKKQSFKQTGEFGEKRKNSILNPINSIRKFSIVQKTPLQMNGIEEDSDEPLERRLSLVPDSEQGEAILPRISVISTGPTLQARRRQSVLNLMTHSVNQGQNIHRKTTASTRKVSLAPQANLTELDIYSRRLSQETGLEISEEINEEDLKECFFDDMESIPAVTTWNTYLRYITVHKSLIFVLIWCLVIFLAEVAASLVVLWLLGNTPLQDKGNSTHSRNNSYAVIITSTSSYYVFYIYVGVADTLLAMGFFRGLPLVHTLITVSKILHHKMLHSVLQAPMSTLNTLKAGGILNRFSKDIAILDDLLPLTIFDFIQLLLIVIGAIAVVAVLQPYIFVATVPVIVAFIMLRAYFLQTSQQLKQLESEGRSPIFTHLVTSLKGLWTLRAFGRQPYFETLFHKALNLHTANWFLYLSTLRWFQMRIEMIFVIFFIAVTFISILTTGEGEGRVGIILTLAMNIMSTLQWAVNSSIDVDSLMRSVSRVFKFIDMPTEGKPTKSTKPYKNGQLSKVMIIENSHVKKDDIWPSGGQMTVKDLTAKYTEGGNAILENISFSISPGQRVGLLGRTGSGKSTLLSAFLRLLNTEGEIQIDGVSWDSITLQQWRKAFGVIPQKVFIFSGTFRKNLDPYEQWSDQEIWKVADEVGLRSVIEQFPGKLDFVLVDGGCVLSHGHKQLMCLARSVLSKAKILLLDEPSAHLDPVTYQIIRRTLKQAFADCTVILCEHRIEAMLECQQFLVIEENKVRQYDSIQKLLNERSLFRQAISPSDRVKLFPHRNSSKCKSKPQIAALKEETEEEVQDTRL
Structure (SMILES),Ent. B Max Activity (%) (Table 9),EC50 (Table 9),Ent. B Max Activity (Table 8),EC50 [1],also measured
Cc1cccc(C)c1-c1cc2nc(n1)NS(=O)(=O)c1cccc(c1)C(=O)N(Cc1ccc3c(c1)C(=O)NC3)[C@H](CC(C)(C)C)CO2 [Compound 792],+++ (+++ is >600%),< 1 µM,–,–,–
"Cc1cccc(C)c1-c1cc2nc(n1)NS(=O)(=O)c1cccc(c1)C(=O)N(CC1CCC(C)(O)CC1)[C@H](CC(C)(C)C)CO2 (single isomer, unassigned) [Compound 149]",–,–,+++ (+++ is >60%),< 1 µM,–
Cc1cccc(C)c1-c1cc2nc(n1)NS(=O)(=O)c1cccc(c1)C(=O)N(Cc1ncccc1C(C)(C)O)[C@H](CC(C)(C)C)CO2 [Compound 385],+++ (+++ is >600%),< 1 µM,–,–,–
Cc1cccc(C)c1-c1cc2nc(n1)NS(=O)(=O)c1cccc(c1)C(=O)N(CCCN(C)C)[C@H](CC(C)C)CO2 [Compound 411],–,–,–,–,"Ent. B Max Activity (Table 7): +++ (+++ is >60%); EC50 (Table 7, human enteroid cells, 18-24 hours, acute 10 μM forskolin and 300 nM ivacaftor): < 1 µM"
Cc1cccc(C)c1-c1cc2nc(n1)NS(=O)(=O)c1cccc(c1)C(=O)N(CC(C)(C)C)[C@H](CC(C)(C)C)CO2 [Compound 399],+++ (+++ is >600%),< 1 µM,–,–,–
Cc1cccc(C)c1-c1cc2nc(n1)NS(=O)(=O)c1cccc(c1)C(=O)N(Cc1ncccn1)[C@H](CC(C)(C)O)CO2 [Compound 658],–,–,+++ (+++ is >60%),1 to 3 µM,–
COC(=O)N1CCn2ncc(CN3C(=O)c4cccc(c4)S(=O)(=O)Nc4nc(cc(-c5c(C)cccc5C)n4)OC[C@H]3CC(C)(C)C)c2C1 [Compound 403],–,–,+++ (+++ is >60%),< 1 µM,–
Cc1cccc(C)c1-c1cc2nc(n1)NS(=O)(=O)c1cccc(c1)C(=O)N(CCCC(C)(C)O)[C@H](CCC(C)(C)O)CO2 [Compound 660],–,–,+ (+ is <30%),–,–
"Cc1cccc(C)c1-c1cc2nc(n1)NS(=O)(=O)c1cccc(c1)C(=O)N(CC1CCC(C)(O)CC1)[C@H](CC(C)(C)C)CO2 (single isomer, unassigned) [Compound 150]",–,–,+++ (+++ is >60%),< 1 µM,–
Cc1cccc(C)c1-c1cc2nc(n1)NS(=O)(=O)c1cccc(c1)C(=O)N(Cc1ncc(C(C)C)cn1)[C@H](CC(C)(C)C)CO2 [Compound 1077],+++ (+++ is >600%),< 1 µM,–,–,–
Cc1cccc(C)c1-c1cc2nc(n1)NS(=O)(=O)c1cc(n(C)n1)C(=O)N(Cc1ncccn1)[C@H](CC(C)(C)C)CO2 [Compound 929],–,–,+++ (+++ is >60%),< 1 µM,–
CCCc1ccc(CN2C(=O)c3cccc(c3)S(=O)(=O)Nc3nc(cc(-c4c(C)cccc4C)n3)OC[C@H]2CC(C)(C)C)cc1 [Compound 793],+++ (+++ is >600%),–,–,–,–
Cc1cccc(C)c1-c1cc2nc(n1)NS(=O)(=O)c1cccc(c1)C(=O)N(CCCS(C)(=O)=O)[C@H](CC(C)C)CO2 [Compound 389],+++ (+++ is >600%),< 1 µM,–,–,–
Cc1cccc(C)c1-c1cc2nc(n1)NS(=O)(=O)c1cccc(c1)C(=O)N(CC1CC(C(C)(C)O)C1)[C@H](CC(C)(C)C)CO2 (some centres unmarked) [Compound 1020],–,–,+++ (+++ is >60%),< 1 µM,–
Cc1cccc(C)c1-c1cc2nc(n1)NS(=O)(=O)c1cccc(c1)C(=O)N(Cc1ccccc1)[C@H](CC(C)(C)C)CO2 [Compound 1087],–,–,+++ (+++ is >60%),< 1 µM,–
Cc1cccc(C)c1-c1cc2nc(n1)NS(=O)(=O)c1cccc(c1)C(=O)N(CC1CCC(C(C)(C)O)CC1)[C@H](CC(C)(C)C)CO2 (some centres unmarked) [Compound 797],+++ (+++ is >600%),< 1 µM,–,–,–
Cc1cccc(C)c1-c1cc2nc(n1)NS(=O)(=O)c1cccc(c1)C(=O)N(Cc1ccc3c(c1)NC(=O)C3)[C@H](CC(C)(C)C)CO2 [Compound 799],+++ (+++ is >600%),< 1 µM,–,–,–
"Cc1cccc(C)c1-c1cc2nc(n1)NS(=O)(=O)c1cccc(c1)C(=O)N(CCc1ccc(C(C)(C)O)cc1)[C@H](CC(C)(C)C)CO2 [Compound 108, (11R)-6-(2,6-Dimethylphenyl)-11-(2,2-dimethylpropyl)-12-[2-[4-(1-hydroxy-1-methyl-ethyl)phenyl]ethyl]-2,2-dioxo-9-oxa-2λ^6-thia-3,5,12,19-tetrazatricyclo[12.3.1.14,8]nonadeca-1(18),4(19),5,7,14,16-hexaen-13-one]",+++ (+++ is >600%),< 1 µM,–,–,–
"Cc1cccc(C)c1-c1cc2nc(n1)NS(=O)(=O)c1cc(nn1C)C(=O)N(Cc1ncccn1)[C@H](CC(C)(C)C)CO2 [Compound 70, (10R)-15-(2,6-Dimethylphenyl)-10-(2,2-dimethylpropyl)-5-methyl-3,3-dioxo-9-(pyrimidin-2-ylmethyl)-12-oxa-3λ^6-thia-2,5,6,9,16,17-hexazatricyclo[11.3.1.14,7]octadeca-1(17),4(18),6,13,15-pentaen-8-one]",–,–,++ (++ is 30-60%),< 1 µM,–
Cc1cccc(C)c1-c1cc2nc(n1)NS(=O)(=O)c1cc(nn1C)C(=O)N(Cc1ccccn1)[C@H](CC(C)(C)C)CO2 [Compound 934],–,–,++ (++ is 30-60%),< 1 µM,–
Cc1ncc(CN2C(=O)c3cc(nn3C)S(=O)(=O)Nc3nc(cc(-c4c(C)cccc4C)n3)OC[C@H]2CC(C)(C)C)cn1 [Compound 925],–,–,++ (++ is 30-60%),< 1 µM,–
Cc1cccc(C)c1-c1cc2nc(n1)NS(=O)(=O)c1cccc(c1)C(=O)N(Cc1ccc(C(F)(F)F)cn1)[C@H](CC(C)(C)C)CO2 [Compound 806],+++ (+++ is >600%),< 1 µM,–,–,–
Cc1cccc(C)c1-c1cc2nc(n1)NS(=O)(=O)c1cccc(c1)C(=O)N(Cc1ccc(CC(C)(C)O)cc1)[C@H](CC(C)(C)C)CO2 [Compound 848],–,–,+++ (+++ is >60%),< 1 µM,–
Cc1cccc(C)c1-c1cc2nc(n1)NSc1cccc(c1)C(=O)N(Cc1ccc(C(C)(C)O)cc1)[C@H](CC(C)(C)C(F)(F)F)CO2 [Compound 321],+++ (+++ is >600%),< 1 µM,–,–,–
COc1cnc(CN2C(=O)c3cccc(c3)S(=O)(=O)Nc3nc(cc(-c4c(C)cccc4C)n3)OC[C@H]2CC(C)(C)C)cn1 [Compound 1099],–,–,+++ (+++ is >60%),< 1 µM,–
Cc1cccc(C)c1-c1cc2nc(n1)NS(=O)(=O)c1cccc(c1)C(=O)N(Cc1ccc(S(F)(F)(F)(F)F)cc1)[C@H](CC(C)(C)C)CO2 [Compound 801],+++ (+++ is >600%),< 1 µM,–,–,–
